Source: patent US20240158348A1, “HERBICIDAL CYCLIC AMIDES N-SUBSTITUTED WITH A HALOALKYLSULFONYLANILIDE GROUP” (FMC Corporation, priority 2021, published 2024)

Experiments:
Type in all cases: in vivo
[1] = tested on: blackgrass (Alopecurus myosuroides); test: Test C preemergence, blackgrass; conditions: 0 is no effect, 100 is complete control
Text: (§1) Seeds of plant species selected from blackgrass (Alopecurus myosuroides), corn (Zea mays), foxtail, giant (giant foxtail, Setaria faberi), goosegrass (Eleusine indica), kochia (Bassia scoparia), oat, wild (wild oat, Avena fatua), pigweed, palmer (palmer amaranth, Amaranthus palmeri), ragweed (common ragweed, Ambrosia artemisiifolia), ryegrass, Italian (Italian ryegrass, Lolium multiflorum), soybean (Glycine max) and wheat (Triticum aestivum) were planted into a blend of loam soil and sand and treated preemergence with a directed soil spray using test chemicals formulated in a non-phytotoxic solvent mixture which included a surfactant.
(§2) At the same time, plants selected from these crop and weed species and also galium (catchweed bedstraw, Galium aparine) and horseweed (Erigeron canadensis) were planted in pots containing the same blend of loam soil and sand and treated with postemergence applications of test chemicals formulated in the same manner. Plants ranged in height from 2 to 10 cm and were in the one- to two-leaf stage for the postemergence treatment. Treated plants and untreated controls were maintained in a greenhouse for 10 or 12 days, after which time all treated plants were compared to untreated controls and visually evaluated for injury. Plant response ratings, summarized in Table A, are based on a 0 to 100 scale where 0 is no effect and 100 is complete control. A dash (-) response means no test result.

corn (Zea mays) [2] = test: Test C preemergence, corn; conditions: 0 is no effect, 100 is complete control
Text: as §1, §2

[3] = tested on: foxtail, giant (giant foxtail, Setaria faberi); test: Test C preemergence, giant foxtail; conditions: 0 is no effect, 100 is complete control
Text: as §1, §2

[4] = tested on: goosegrass (Eleusine indica); test: Test C preemergence, goosegrass; conditions: 0 is no effect, 100 is complete control
Text: as §1, §2

kochia (Bassia scoparia) [5] = test: Test C preemergence, kochia; conditions: 0 is no effect, 100 is complete control
Text: as §1, §2

[6] = tested on: oat, wild (wild oat, Avena fatua); test: Test C preemergence, wild oat; conditions: 0 is no effect, 100 is complete control
Text: as §1, §2

[7] = tested on: pigweed, palmer (palmer amaranth, Amaranthus palmeri); test: Test C preemergence, palmer amaranth; conditions: 0 is no effect, 100 is complete control
Text: as §1, §2

[8] = tested on: ragweed (common ragweed, Ambrosia artemisiifolia); test: Test C preemergence, ragweed; conditions: 0 is no effect, 100 is complete control
Text: as §1, §2

[9] = tested on: ryegrass, Italian (Italian ryegrass, Lolium multiflorum); test: Test C preemergence, Italian ryegrass; conditions: 0 is no effect, 100 is complete control
Text: as §1, §2

soybean (Glycine max) [10] = test: Test C preemergence, soybean; conditions: 0 is no effect, 100 is complete control
Text: as §1, §2

[11] = tested on: wheat (Triticum aestivum); test: Test C preemergence, wheat; conditions: 0 is no effect, 100 is complete control
Text: as §1, §2

[12] = tested on: blackgrass (Alopecurus myosuroides); test: Test C postemergence, blackgrass; conditions: visual injury, 0 to 100 scale (0 no effect, 100 complete control)
Text: as §1, §2

corn (Zea mays) [13] = test: Test C postemergence, corn; conditions: visual injury, 0 to 100 scale (0 no effect, 100 complete control)
Text: as §1, §2

[14] = tested on: foxtail, giant (giant foxtail, Setaria faberi); test: Test C postemergence, giant foxtail; conditions: visual injury, 0 to 100 scale (0 no effect, 100 complete control)
Text: as §1, §2

[15] = tested on: goosegrass (Eleusine indica); test: Test C postemergence, goosegrass; conditions: visual injury, 0 to 100 scale (0 no effect, 100 complete control)
Text: as §1, §2

kochia (Bassia scoparia) [16] = test: Test C postemergence, kochia; conditions: visual injury, 0 to 100 scale (0 no effect, 100 complete control)
Text: as §1, §2

[17] = tested on: oat, wild (wild oat, Avena fatua); test: Test C postemergence, wild oat; conditions: visual injury, 0 to 100 scale (0 no effect, 100 complete control)
Text: as §1, §2

[18] = tested on: pigweed, palmer (palmer amaranth, Amaranthus palmeri); test: Test C postemergence, palmer amaranth; conditions: visual injury, 0 to 100 scale (0 no effect, 100 complete control)
Text: as §1, §2

[19] = tested on: ragweed (common ragweed, Ambrosia artemisiifolia); test: Test C postemergence, ragweed; conditions: visual injury, 0 to 100 scale (0 no effect, 100 complete control)
Text: as §1, §2

[20] = tested on: ryegrass, Italian (Italian ryegrass, Lolium multiflorum); test: Test C postemergence, Italian ryegrass; conditions: visual injury, 0 to 100 scale (0 no effect, 100 complete control)
Text: as §1, §2

soybean (Glycine max) [21] = test: Test C postemergence, soybean; conditions: visual injury, 0 to 100 scale (0 no effect, 100 complete control)
Text: as §1, §2

[22] = tested on: wheat (Triticum aestivum); test: Test C postemergence, wheat; conditions: visual injury, 0 to 100 scale (0 no effect, 100 complete control)
Text: as §1, §2

[23] = tested on: galium (catchweed bedstraw, Galium aparine); test: Test C postemergence, galium; conditions: visual injury, 0 to 100 scale (0 no effect, 100 complete control)
Text: as §1, §2

[24] = tested on: horseweed (Erigeron canadensis); test: Test C postemergence, horseweed; conditions: visual injury, 0 to 100 scale (0 no effect, 100 complete control)
Text: as §1, §2

[25] = tested on: barnyardgrass (Echinochloa crusgalli); test: Test D flooded paddy test, barnyardgrass; parameters: key: 0 = no effect, 100 = complete control; conditions: 250 g ai/ha, Flood; applied to paddy water at 2-leaf stage; visual rating after 13 days; scale 0 (no effect) to 100 (complete control)
Protocol: (§3) Plant species in the flooded paddy test selected from barnyardgrass (Echinochloa crusgalli), ducksalad (Heteranthera limosa), rice (Oryza sativa), and sedge, umbrella (small-flower umbrella sedge, Cyperus difformis) were grown to the 2-leaf stage for testing. At time of treatment, test pots were flooded to 3 cm above the soil surface, treated by application of test compounds directly to the paddy water, and then maintained at that water depth for the duration of the test. Treated plants and controls were maintained in a greenhouse for 13 days, after which time all species were compared to controls and visually evaluated. Plant response ratings, summarized in Table B, are based on a scale of 0 to 100 where 0 is no effect and 100 is complete control. A dash (-) response means no test result.

[26] = tested on: ducksalad (Heteranthera limosa); test: Test D flooded paddy test, ducksalad; parameters: key: 0 = no effect, 100 = complete control; conditions: 250 g ai/ha, Flood; applied to paddy water at 2-leaf stage; visual rating after 13 days; scale 0 (no effect) to 100 (complete control)
Protocol: as §3

rice (Oryza sativa) = test: Test D flooded paddy test, rice; parameters: key: 0 = no effect, 100 = complete control; conditions: 250 g ai/ha, Flood; applied to paddy water at 2-leaf stage; visual rating after 13 days; scale 0 (no effect) to 100 (complete control)
Protocol: as §3

[27] = tested on: sedge, umbrella (small-flower umbrella sedge, Cyperus difformis); test: Test D flooded paddy test, umbrella sedge; parameters: key: 0 = no effect, 100 = complete control; conditions: 250 g ai/ha, Flood; applied to paddy water at 2-leaf stage; visual rating after 13 days; scale 0 (no effect) to 100 (complete control)
Protocol: as §3

Cc1cc(C)c(N2CCC(OCc3ccccc3)C2=O)cc1NS(=O)(=O)C(F)(F)F (stereo not shown) [Compound 61]
Plant response rating (0 to 100 scale), Blackgrass ([1]; 31 g ai/ha Preemergence): 60 | Plant response rating (0 to 100 scale), Blackgrass ([1]; 125 g ai/ha Preemergence): 90 | Plant response rating (0 to 100 scale), Corn (corn (Zea mays) [2]; 31 g ai/ha Preemergence): 20 | Plant response rating (0 to 100 scale), Corn (corn (Zea mays) [2]; 125 g ai/ha Preemergence): 100 | Plant response rating (0 to 100 scale), Foxtail, Giant ([3]; 31 g ai/ha Preemergence): 100 | Plant response rating (0 to 100 scale), Foxtail, Giant ([3]; 125 g ai/ha Preemergence): 100 | Plant response rating (0 to 100 scale), Goosegrass ([4]; 31 g ai/ha Preemergence): 100 | Plant response rating (0 to 100 scale), Goosegrass ([4]; 125 g ai/ha Preemergence): 100 | Plant response rating (0 to 100 scale), Kochia (kochia (Bassia scoparia) [5]; 31 g ai/ha Preemergence): 90 | Plant response rating (0 to 100 scale), Kochia (kochia (Bassia scoparia) [5]; 125 g ai/ha Preemergence): 100 | Plant response rating (0 to 100 scale), Oat, Wild ([6]; 31 g ai/ha Preemergence): 50 | Plant response rating (0 to 100 scale), Oat, Wild ([6]; 125 g ai/ha Preemergence): 90 | Plant response rating (0 to 100 scale), Pigweed, Palmer ([7]; 31 g ai/ha Preemergence): 100 | Plant response rating (0 to 100 scale), Pigweed, Palmer ([7]; 125 g ai/ha Preemergence): 100 | Plant response rating (0 to 100 scale), Ragweed ([8]; 31 g ai/ha Preemergence): 0 | Plant response rating (0 to 100 scale), Ragweed ([8]; 125 g ai/ha Preemergence): 90 | Plant response rating (0 to 100 scale), Ryegrass, Italian ([9]; 31 g ai/ha Preemergence): 60 | Plant response rating (0 to 100 scale), Ryegrass, Italian ([9]; 125 g ai/ha Preemergence): 90 | Plant response rating (0 to 100 scale), Soybean (soybean (Glycine max) [10]; 31 g ai/ha Preemergence): 40 | Plant response rating (0 to 100 scale), Soybean (soybean (Glycine max) [10]; 125 g ai/ha Preemergence): 90 | Plant response rating (0 to 100 scale), Wheat ([11]; 31 g ai/ha Preemergence): 30 | Plant response rating (0 to 100 scale), Wheat ([11]; 125 g ai/ha Preemergence): 100 | Blackgrass plant response rating ([12]; 31 g ai/ha Postemergence): 30 | Blackgrass plant response rating ([12]; 125 g ai/ha Postemergence): 70 | Corn plant response rating (corn (Zea mays) [13]; 31 g ai/ha Postemergence): 10 | Corn plant response rating (corn (Zea mays) [13]; 125 g ai/ha Postemergence): 60 | Foxtail, Giant plant response rating ([14]; 31 g ai/ha Postemergence): 20 | Foxtail, Giant plant response rating ([14]; 125 g ai/ha Postemergence): 50 | Goosegrass plant response rating ([15]; 31 g ai/ha Postemergence): 40 | Goosegrass plant response rating ([15]; 125 g ai/ha Postemergence): 90 | Kochia plant response rating (kochia (Bassia scoparia) [16]; 31 g ai/ha Postemergence): 60 | Kochia plant response rating (kochia (Bassia scoparia) [16]; 125 g ai/ha Postemergence): 90 | Oat, Wild plant response rating ([17]; 31 g ai/ha Postemergence): 20 | Oat, Wild plant response rating ([17]; 125 g ai/ha Postemergence): 80 | Pigweed, Palmer plant response rating ([18]; 31 g ai/ha Postemergence): 50 | Pigweed, Palmer plant response rating ([18]; 125 g ai/ha Postemergence): 80 | Ragweed plant response rating ([19]; 31 g ai/ha Postemergence): 50 | Ragweed plant response rating ([19]; 125 g ai/ha Postemergence): 80 | Ryegrass, Italian plant response rating ([20]; 31 g ai/ha Postemergence): 0 | Ryegrass, Italian plant response rating ([20]; 125 g ai/ha Postemergence): 60 | Soybean plant response rating (soybean (Glycine max) [21]; 31 g ai/ha Postemergence): 60 | Soybean plant response rating (soybean (Glycine max) [21]; 125 g ai/ha Postemergence): 90 | Wheat plant response rating ([22]; 31 g ai/ha Postemergence): 70 | Wheat plant response rating ([22]; 125 g ai/ha Postemergence): 80 | Galium plant response rating ([23]; 31 g ai/ha Postemergence): 70 | Galium plant response rating ([23]; 125 g ai/ha Postemergence): 90 | Horseweed plant response rating ([24]; 31 g ai/ha Postemergence): 60 | Horseweed plant response rating ([24]; 125 g ai/ha Postemergence): 60 | Plant response rating, Barnyardgrass [25]: 95 | Plant response rating, Ducksalad [26]: 75 | Plant response rating, Rice (rice (Oryza sativa)): 20 | Plant response rating, Sedge, Umbrella [27]: 90
